Results: patent US10259810B2, “N-sulfonylated pyrazolo[3,4-b]pyridin-6-carboxamides and method of use” (AbbVie S.à.r.l., priority 2015, dated 2019)

Experiments:
Type in all cases: cell-based
[1] = target: T1, ΔF508-CFTR (Homo sapiens, UniProt P13569, DEL508-508); assay: CFTR cell surface levels using HRP-tagged ΔF508-CFTR expressing CFBE cells, intrinsic corrector capacity; design: % Activation: concentration or dose not given beside the values; details: HRP-tagged ΔF508-CFTR expressing CFBE41o- cells, compound alone (intrinsic corrector capacity), 20 hours at 33° C.; for EC50: read-out: EC50
T1 construct: host or cells: CFBE41o-, doxycycline-inducible
T1 sequence (P13569 with tags, fused parts or gaps DEL508-508): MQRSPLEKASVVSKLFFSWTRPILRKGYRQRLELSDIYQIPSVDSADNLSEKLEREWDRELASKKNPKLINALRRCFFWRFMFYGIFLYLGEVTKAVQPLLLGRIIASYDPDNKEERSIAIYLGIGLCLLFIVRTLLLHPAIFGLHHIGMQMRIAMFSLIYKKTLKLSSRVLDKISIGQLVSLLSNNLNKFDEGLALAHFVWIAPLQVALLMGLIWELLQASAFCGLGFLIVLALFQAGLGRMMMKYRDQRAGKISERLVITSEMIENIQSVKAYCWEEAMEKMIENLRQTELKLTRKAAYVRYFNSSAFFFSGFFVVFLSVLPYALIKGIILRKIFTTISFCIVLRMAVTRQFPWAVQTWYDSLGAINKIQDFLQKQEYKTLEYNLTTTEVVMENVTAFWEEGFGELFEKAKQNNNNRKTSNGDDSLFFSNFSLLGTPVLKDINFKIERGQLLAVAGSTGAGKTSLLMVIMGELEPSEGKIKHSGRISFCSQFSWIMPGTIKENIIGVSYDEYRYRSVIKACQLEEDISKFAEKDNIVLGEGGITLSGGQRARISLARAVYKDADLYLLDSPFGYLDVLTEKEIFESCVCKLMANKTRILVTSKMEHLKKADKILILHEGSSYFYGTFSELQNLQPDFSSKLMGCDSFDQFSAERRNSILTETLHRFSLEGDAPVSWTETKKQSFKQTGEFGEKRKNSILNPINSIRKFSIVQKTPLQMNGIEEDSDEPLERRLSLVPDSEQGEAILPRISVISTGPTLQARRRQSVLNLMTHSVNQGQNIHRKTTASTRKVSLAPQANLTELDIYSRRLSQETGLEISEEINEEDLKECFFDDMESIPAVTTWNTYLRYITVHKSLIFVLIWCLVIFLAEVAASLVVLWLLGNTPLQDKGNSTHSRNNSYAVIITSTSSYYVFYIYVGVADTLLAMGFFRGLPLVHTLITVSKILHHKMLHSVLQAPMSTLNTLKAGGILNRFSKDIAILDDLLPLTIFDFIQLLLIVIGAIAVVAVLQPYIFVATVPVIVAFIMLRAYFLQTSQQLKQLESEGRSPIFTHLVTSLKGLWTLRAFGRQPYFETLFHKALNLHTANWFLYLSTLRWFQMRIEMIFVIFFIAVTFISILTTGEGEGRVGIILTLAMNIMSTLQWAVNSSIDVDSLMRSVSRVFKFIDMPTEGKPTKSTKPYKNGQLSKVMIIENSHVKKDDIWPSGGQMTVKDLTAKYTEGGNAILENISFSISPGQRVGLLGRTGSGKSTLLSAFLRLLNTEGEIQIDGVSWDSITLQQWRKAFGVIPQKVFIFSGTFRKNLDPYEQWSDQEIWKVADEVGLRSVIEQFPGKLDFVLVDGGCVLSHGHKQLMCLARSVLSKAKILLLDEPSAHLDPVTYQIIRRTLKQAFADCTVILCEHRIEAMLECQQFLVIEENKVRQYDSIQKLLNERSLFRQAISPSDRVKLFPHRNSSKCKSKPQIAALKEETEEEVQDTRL
Method in brief: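 Surface ΔF508-CFTR was measured as HRP chemiluminescence from an extracellular-loop-4 tag, expressed as percent activity between DMSO and a […] corrector control.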

[2] = target: T1, ΔF508-CFTR; assay: CFTR cell surface levels using HRP-tagged ΔF508-CFTR expressing CFBE cells, in the presence of a co-corrector; details: HRP-tagged ΔF508-CFTR CFBE cells, in the presence of 3 μM co-corrector; for EC50: read-out: EC50
Method in brief: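 Chemiluminescent read-out of surface HRP (15 min, dark) after PBS washes. Activity is normalized as 100×(sample−DMSO)/(3 μM co-corrector alone−DMSO).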

[3] = target: T2, CFTR ΔF508 (Homo sapiens, UniProt P13569, DEL508-508); assay: Chronic TECC assay, primary bronchial epithelial cells of CF patients homozygous for CFTR ΔF508 (corrector, co-corrector and potentiator); details: chronic TECC, AUC = full area under the curve upon forskolin stimulation; for % Activity at 1 μM (AUC**): test compound at 1 μM; for EC50: read-out: EC50 (nM) (AUC**)
T2 construct: bronchial epithelial cells isolated from CF patients homozygous for the CFTR ΔF508 mutation; McGill University; Asterand; University of North Carolina hAEC-CF; host or cells: primary human bronchial epithelial cells from CF patients homozygous for ΔF508, differentiated at air-liquid interface
T2 sequence (P13569 with tags, fused parts or gaps DEL508-508): as above
Method in brief: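 Primary bronchial epithelial cells from ΔF508-homozygous CF patients on collagen IV-coated Transwells were chronically treated with test compound plus corrector and potentiator, which were re-added before recording. Ieq was derived from PD and Rt in NaCl-Ringer, pH 7.4, at 37° C, with apical amiloride and bilateral forskolin, recorded every 2 min over 20 min. Ieq increase was normalized to controls, and EC50 was taken from per-well concentrations.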

| Structure (SMILES) | % Activation [1] [%] | EC50 [1] [nM] | % Activation [2] [%] | EC50 [2] [nM] | % Activity at 1 μM (AUC**) [3] [%] | EC50 [3] [nM] |
| --- | --- | --- | --- | --- | --- | --- |
| COCC1CN(c2cc(C(=O)NS(C)(=O)=O)nc3c2c(C2CCC2)nn3-c2ccccc2)C1 [Compound 193, 3-cyclobutyl-N-(methanesulfonyl)-4-[3-(methoxymethyl)azetidin-1-yl]-1-phenyl-1H-pyrazolo[3,4-b]pyridine-6-carboxamide] | 175.23 | 1070 | 341.37 | 589 | 317.57 |  |
| CS(=O)(=O)NC(=O)c1cc(OCCC2CCOCC2)c2c(C3CCC3)nn(-c3ccccc3)c2n1 [Compound 198, 3-cyclobutyl-N-(methanesulfonyl)-4-[2-(oxan-4-yl)ethoxy]-1-phenyl-1H-pyrazolo[3,4-b]pyridine-6-carboxamide] | 135.73 | 633 | 321.57 | 466 | 477.39 |  |
| CS(=O)(=O)NC(=O)c1cc(OC[C@@H](F)C2CCOCC2)c2c(C3CCC3)nn(-c3ccccc3)c2n1 [Compound 199, 3-cyclobutyl-4-[(2S)-2-fluoro-2-(oxan-4-yl)ethoxy]-N-(methanesulfonyl)-1-phenyl-1H-pyrazolo[3,4-b]pyridine-6-carboxamide] | 142.6 | 481 | 304.63 | 316 | 627.48 | > 1000 |
| CS(=O)(=O)NC(=O)c1cc(OCC2CCOCC2)c2c(C3CCC3)nn(-c3ccccc3)c2n1 [Compound 200, 3-cyclobutyl-N-(methanesulfonyl)-4-[(oxan-4-yl)methoxy]-1-phenyl-1H-pyrazolo[3,4-b]pyridine-6-carboxamide] | 163.43 | 316 | 318.27 | 94.8 | 364.3 |  |
| CS(=O)(=O)NC(=O)c1cc(-c2ccc(N3CCC(C#N)CC3)nc2)c2c(C3CCC3)nn(-c3ccnc(N4CCOCC4)c3)c2n1 [Compound 201, 4-[6-(4-cyanopiperidin-1-yl)pyridin-3-yl]-3-cyclobutyl-N-(methanesulfonyl)-1-[2-(morpholin-4-yl)pyridin-4-yl]-1H-pyrazolo[3,4-b]pyridine-6-carboxamide] | 200.8 | 402 | 379.9 | 292 | 250 | < 300 |
| COC1CCN(c2cc(C(=O)NS(=O)(=O)C3CCOCC3)nc3c2c(C2CCC2)nn3-c2ccccc2)CC1 [Compound 207, 3-cyclobutyl-4-(4-methoxypiperidin-1-yl)-N-(oxane-4-sulfonyl)-1-phenyl-1H-pyrazolo[3,4-b]pyridine-6-carboxamide] | 141.93 | 340 | 284.87 | 175 | 441.31 |  |
| COC(=O)N1CCC2CN(c3cc(C(=O)NS(C)(=O)=O)nc4c3c(C3CCC3)nn4-c3ccccc3)CCC21 (stereo not drawn) [Compound 215, methyl 5-{3-cyclobutyl-6-[(methanesulfonyl)carbamoyl]-1-phenyl-1H-pyrazolo[3,4-b]pyridin-4-yl}octahydro-1H-pyrrolo[3,2-c]pyridine-1-carboxylate] | 374.57 | 274 | 569.35 | 47.9 | 320 | 45 |
| CN(C)C[C@@H](F)C1CCN(c2cc(C(=O)NS(C)(=O)=O)nc3c2c(C2CCC2)nn3-c2ccccc2)CC1 [Compound 219, 3-cyclobutyl-4-{4-[(1S)-2-(dimethylamino)-1-fluoroethyl]piperidin-1-yl}-N-(methanesulfonyl)-1-phenyl-1H-pyrazolo[3,4-b]pyridine-6-carboxamide] | 381.1 | 764 | 524.4 | 230 | 298.20 |  |
| COC(C)(C)C1CCN(c2cc(C(=O)NS(C)(=O)=O)nc3c2c(C(C)C)nn3-c2ccc(F)cc2)CC1 [Compound 221, 1-(4-fluorophenyl)-N-(methanesulfonyl)-4-[4-(2-methoxypropan-2-yl)piperidin-1-yl]-3-(propan-2-yl)-1H-pyrazolo[3,4-b]pyridine-6-carboxamide] | 322.15 | 420 | 492.2 | 77.2 | 245.9 | 40 |
| COCCS(=O)(=O)NC(=O)c1cc(-c2ccc(N3CCOCC3)cc2)c2c(OC(C)C)nn(-c3ccccc3)c2n1 [Compound 226, N-(2-methoxyethanesulfonyl)-4-[4-(morpholin-4-yl)phenyl]-1-phenyl-3-[(propan-2-yl)oxy]-1H-pyrazolo[3,4-b]pyridine-6-carboxamide] | 206.7 | 445 | 392.95 | 386 | 530 | 56 |
| CS(=O)(=O)NC(=O)c1cc(N2CCC(OC3CCCC3)CC2)c2c(C3CCC3)nn(-c3ccccc3)c2n1 [Compound 228, 3-cyclobutyl-4-[4-(cyclopentyloxy)piperidin-1-yl]-N-(methanesulfonyl)-1-phenyl-1H-pyrazolo[3,4-b]pyridine-6-carboxamide] | 217.9 | 490 | 395.1 | 335 | 240 | 32 |
| CS(=O)(=O)NC(=O)c1cc(N2CCC(OC3CCCCC3)CC2)c2c(C3CCC3)nn(-c3ccccc3)c2n1 [Compound 229, 3-cyclobutyl-4-[4-(cyclohexyloxy)piperidin-1-yl]-N-(methanesulfonyl)-1-phenyl-1H-pyrazolo[3,4-b]pyridine-6-carboxamide] | 174.2 | 414 | 418.65 | 366 | 430 | 20 |
| CS(=O)(=O)NC(=O)c1cc(N2CCC(OCC3CC3)CC2)c2c(C3CCC3)nn(-c3ccccc3)c2n1 [Compound 230, 3-cyclobutyl-4-[4-(cyclopropylmethoxy)piperidin-1-yl]-N-(methanesulfonyl)-1-phenyl-1H-pyrazolo[3,4-b]pyridine-6-carboxamide] | 243.75 | 406 | 440.1 | 180 | 265.44 | 27 |
| COCCS(=O)(=O)NC(=O)c1cc(N2CCC(COC)CC2)c2c(C(C)C)nn(-c3ccc(F)cc3)c2n1 [Compound 236, 1-(4-fluorophenyl)-N-(2-methoxyethanesulfonyl)-4-[4-(methoxymethyl)piperidin-1-yl]-3-(propan-2-yl)-1H-pyrazolo[3,4-b]pyridine-6-carboxamide] | 309.83 | 316 | 497.5 | 93.2 | 434.22 | 80 |
| CS(=O)(=O)NC(=O)c1cc(OCC2CCC(F)(F)C2)c2c(C3CCC3)nn(-c3ccccc3)c2n1 (stereo not drawn) [Compound 238, 3-cyclobutyl-4-[(3,3-difluorocyclopentyl)methoxy]-N-(methanesulfonyl)-1-phenyl-1H-pyrazolo[3,4-b]pyridine-6-carboxamide] | 159.83 | 601 | 347.55 | 219 | 521.96 |  |
| CC(C)c1nn(-c2ccc(F)cc2)c2nc(C(=O)NS(C)(=O)=O)cc(N3CCC(C#N)CC3)c12 [Compound 240, 4-(4-cyanopiperidin-1-yl)-1-(4-fluorophenyl)-N-(methanesulfonyl)-3-(propan-2-yl)-1H-pyrazolo[3,4-b]pyridine-6-carboxamide] | 176.67 | 377 | 312.8 | 139 | 288.71 | 140 |
| COC(C)C1CCN(c2cc(C(=O)NS(C)(=O)=O)nc3c2c(C2CCC2)nn3-c2ccccc2)CC1 (stereo not drawn) [Compound 241, 3-cyclobutyl-N-(methanesulfonyl)-4-[4-(1-methoxyethyl)piperidin-1-yl]-1-phenyl-1H-pyrazolo[3,4-b]pyridine-6-carboxamide] | 261.93 | 366 | 488.15 | 82.2 | 400 | < 10 |
| COC(C)(C1CCN(c2cc(C(=O)NS(C)(=O)=O)nc3c2c(C2CCC2)nn3-c2ccccc2)CC1)C(F)(F)F (stereo not drawn) [Compound 242, 3-cyclobutyl-N-(methanesulfonyl)-1-phenyl-4-[4-(1,1,1-trifluoro-2-methoxypropan-2-yl)piperidin-1-yl]-1H-pyrazolo[3,4-b]pyridine-6-carboxamide] | 242.1 | 283 | 459.15 | 203 | 308.45 | 14 |
